Data published in patent US20230056205A1, “SUBSTITUTED 4,6-DIHYDROSPIRO[[1,2,3]TRIAZOLO[4,5-B]PYRIDINE-7,3'-INDOLINE]-2',5(3H)-DIONE ANALOGUES” (The Board of Regents of The University of Texas System, priority 2019, published 2023).
Read-outs that look alike come from different tables or passages of the source.

How the values were obtained:
DENV-1 replicon = assay: Luciferase reporter replicon-based screening, DENV-1; assay type: cell-based, DENV-1 (strain WestPac); settings: Dengue virus, DENV1, Huh-7, 48 h, read-out: EC50 DENV-1
Protocol: (§1) Luciferase Reporter Replicon-Based Screening. Huh7 cells containing a luciferase reporter replicon of DENV-1 (strain WestPac), DENV-2 (New Guinea C strain, NGC), DENV-3 (strain D3MY05-34640) and DENV-4 (strain D4MY01-22713) were used in this study. The replicon cells containing the Renilla luciferase and neomycin-resistance genes were generated using a similar strategy as described previously.^55 Briefly, Huh7 DENV-1 to -4 replicon cells were seeded at a density of 10k per well in a 96-well microplate. After incubation at 37° C. with 5% CO2 overnight, the cells were treated with 2-fold serial dilutions of compounds. Experiments were performed in duplicates. After 48 h of incubation, luciferase activities were measured using the EnduRen live-cell substrate (Promega) by following the manufacturer’s instructions. The dose-dependent curve was plotted and EC50 values were calculated using four parameter logistic regression in GraphPad software Prism 8.0.

[1] = Cytotoxicity assay (CellTiter-Glo); assay type: cell-based; settings: human, Huh7 cells stably expressing DENV-2 replicon
Protocol: Cytotoxicity Assay. Huh7 cells or Huh7 replicon cells were seeded in a 96-well plate. After incubation at 37° C. with 5% CO2 overnight, the cells were treated with 2-fold serial dilutions of compounds. Experiments were performed in duplicates. After 48 h of incubation, cell viability was measured by adding the CellTiter-Glo reagent (Promega) to each well. The cell viability in 0.45% DMSO-treatment groups was treated at 100%. The cell viability in compound-treated wells was normalized to that of DMSO-treated wells. CC50 values were calculated using four parameter logistic regression in GraphPad software Prism 8.0.

DENV-2 replicon = assay: Luciferase reporter replicon-based screening, DENV-2; assay type: cell-based, DENV-2 (New Guinea C strain, NGC)
Protocol: as §1

DENV-4 replicon = assay: Luciferase reporter replicon-based screening, DENV-4; assay type: cell-based, DENV-4 (strain D4MY01-22713); settings: Dengue virus, DENV4, Huh-7, 48 h, read-out: EC50 DENV-4
Protocol: as §1

DENV-3 replicon = assay: Luciferase reporter replicon-based screening, DENV-3; assay type: cell-based, DENV-3 (strain D3MY05-34640)
Protocol: as §1

[2] = Dengue virus, DENV2, Huh-7, 48 h, read-out: EC50 DENV-2, Huh7 cells stably expressing DENV-2 replicon, 48 h
[3] = Dengue virus, DENV3, Huh-7, 48 h, read-out: EC50 DENV-3, Huh7 cells stably expressing DENV-3 replicon, 48 h

SMILES: C[C@@H](c1ccc(Cl)cc1)n1nnc2c1NC(=O)C[C@]21C(=O)N(CCC(C)(C)C)c2ccc(Cl)cc21 [Compound 16, (R)-5ʹ-Chloro-3-((S)-1-(4-chlorophenyl)ethyl)-1ʹ-(3,3-dimethylbutyl)-4,6-dihydrospiro[[1,2,3]triazolo[4,5-b]pyridine-7,3ʹ-indoline]-2ʹ,5(3H)-dione]
- EC50 (DENV-1 replicon): 1.1 µM
- CC50 at 48 h [1]: > 10 µM
- EC50 (DENV-2 replicon; [2]): 0.87 µM
- EC50 (DENV-4 replicon): 3.9 µM
- EC50 (DENV-3 replicon; [3]): 0.082 µM

SMILES: C[C@@H](c1ccc(Cl)cc1)n1nnc2c1NC(=O)C[C@]21C(=O)N(CC2CC2)c2ccc(Cl)cc21 [Compound 17, (R)-5'-Chloro-3-((S)-1-(4-chlorophenyl)ethyl)-1'-(cyclopropylmethyl)-4,6-dihydrospiro[[1,2,3]triazolo[4,5-b]pyridine-7,3'-indoline]-2',5(3H)-dione]
- EC50 (DENV-1 replicon): 3.1 µM
- CC50 at 48 h [1]: > 10 µM
- EC50 (DENV-2 replicon; [2]): 0.11 µM
- EC50 (DENV-4 replicon): > 5 µM
- EC50 (DENV-3 replicon; [3]): 0.017 µM

SMILES: C=CCN1C(=O)[C@]2(CC(=O)Nc3c2nnn3[C@@H](C)c2ccc(Cl)cc2)c2cc(Cl)ccc21 [Compound 18, (R)-1'-Allyl-5'-chloro-3-((S)-1-(4-chlorophenyl)ethyl)-4,6-dihydrospiro[[1,2,3]triazolo[4,5-b]pyridine-7,3ʹ-indoline]-2',5(3H)-dione]
- EC50 (DENV-1 replicon): 2.1 µM
- CC50 at 48 h [1]: > 10 µM
- EC50 (DENV-2 replicon; [2]): 0.038 µM
- EC50 (DENV-4 replicon): > 5 µM
- EC50 (DENV-3 replicon; [3]): 0.005 µM

SMILES: C#CCN1C(=O)[C@]2(CC(=O)Nc3c2nnn3[C@@H](C)c2ccc(Cl)cc2)c2cc(Cl)ccc21 [Compound 19, (R)-5ʹ-Chloro-3-((S)-1-(4-chlorophenyl)ethyl)-1ʹ-(prop-2-yn-1-yl)-4,6-dihydrospiro [[1,2,3]triazolo[4,5-b]pyridine-7,3ʹ-indoline]-2ʹ,5(3H)-dione]
- EC50 (DENV-1 replicon): > 5 µM
- CC50 at 48 h [1]: > 10 µM
- EC50 (DENV-2 replicon; [2]): 0.069 µM
- EC50 (DENV-4 replicon): > 5 µM
- EC50 (DENV-3 replicon; [3]): 0.003 µM

SMILES: CC#CCN1C(=O)[C@]2(CC(=O)Nc3c2nnn3[C@@H](C)c2ccc(Cl)cc2)c2cc(Cl)ccc21 [Compound 20, (R)-1'-(But-2-yn-1-yl)-5'-chloro-3-((S)-1-(4-chlorophenyl)ethyl)-4,6-dihydrospiro[[1,2,3]triazolo[4,5-b]pyridine-7,3'-indoline]-2',5(3H)-dione]
- EC50 (DENV-1 replicon): > 5 µM
- CC50 at 48 h [1]: > 10 µM
- EC50 (DENV-2 replicon; [2]): 0.063 µM
- EC50 (DENV-4 replicon): > 5 µM
- EC50 (DENV-3 replicon; [3]): 0.02 µM

SMILES: CC(C)N1C(=O)C[C@]2(C(=O)Nc3ccc(Cl)cc32)c2nnn([C@@H](C)c3ccc(Cl)cc3)c21 [Compound 21, (R)-5'-Chloro-3-((S)-1-(4-chlorophenyl)ethyl)-4-isopropyl-4,6-dihydrospiro[[1,2,3]triazolo[4,5-b]pyridine-7,3'-indoline]-2',5(3H)-dione]
- EC50 (DENV-1 replicon): 2.1 µM
- CC50 at 48 h [1]: > 10 µM
- EC50 (DENV-2 replicon; [2]): 0.86 µM
- EC50 (DENV-4 replicon): 4.4 µM
- EC50 (DENV-3 replicon; [3]): 0.31 µM

SMILES: CC(C)N1C(=O)[C@]2(CC(=O)N(C(C)C)c3c2nnn3[C@@H](C)c2ccc(Cl)cc2)c2cc(Cl)ccc21 [Compound 22, (R)-5'-Chloro-3-((S)-1-(4-chlorophenyl)ethyl)-1',4-diisopropyl-4,6-dihydrospiro[[1,2,3]triazolo[4,5-b]pyridine-7,3'-indoline]-2ʹ,5(3H)-dione]
- EC50 (DENV-1 replicon): 3.8 µM
- CC50 at 48 h [1]: > 10 µM
- EC50 (DENV-2 replicon; [2]): > 10 µM
- EC50 (DENV-4 replicon): 3 µM
- EC50 (DENV-3 replicon; [3]): 1.5 µM

SMILES: C[C@@H](c1ccc(Cl)cc1)n1nnc2c1N(C)C(=O)C(C)(C)[C@]21C(=O)N(C)c2ccc(Cl)cc21 [Compound 23, (S)-5'-Chloro-3-((S)-1-(4-chlorophenyl)ethyl)-1ʹ,4,6,6-tetramethyl-4,6-dihydrospiro[[1,2,3]triazolo[4,5-b]pyridine-7,3ʹ-indoline]-2ʹ,5(3H)-dione]
- EC50 (DENV-1 replicon): > 5 µM
- CC50 at 48 h [1]: > 10 µM
- EC50 (DENV-2 replicon; [2]): > 5 µM
- EC50 (DENV-4 replicon): > 5 µM
- EC50 (DENV-3 replicon; [3]): > 5 µM

SMILES: C[C@@H](c1ccc(Cl)cc1)n1nnc2c1NC(=O)C[C@]21C(=O)N(Cc2ccccc2)c2ccc(Cl)cc21 [Compound 24, (R)-1ʹ-Benzyl-5ʹ-chloro-3-((S)-1-(4-chlorophenyl)ethyl)-4,6-dihydrospiro[[1,2,3]triazolo[4,5-b]pyridine-7,3ʹ-indoline]-2ʹ,5(3H)-dione]
- EC50 (DENV-1 replicon): 2 µM
- CC50 at 48 h [1]: > 10 µM
- EC50 (DENV-2 replicon; [2]): 0.14 to 0.29 µM
- EC50 (DENV-2 replicon; read-out: EC50 DENV-2, Huh7 cells stably expressing DENV-2 replicon, 48 h): 0.15 µM
- EC50 (DENV-4 replicon): > 5 µM
- EC50 (DENV-3 replicon; [3]): 0.02 to 0.051 µM
- EC50 (DENV-3 replicon; read-out: EC50 DENV-3, Huh7 cells stably expressing DENV-3 replicon, 48 h): 0.02 µM

SMILES: C[C@@H](c1ccc(Cl)cc1)n1nnc2c1NC(=O)C[C@]21C(=O)N(Cc2ccc(Cl)cc2)c2ccc(Cl)cc21 [Compound 27, (R)-5'-Chloro-1'-(4-chlorobenzyl)-3-((S)-1-(4-chlorophenyl)ethyl)-4,6-dihydrospiro[[1,2,3]triazolo[4,5-b]pyridine-7,3'-indoline]-2',5(3H)-dione]
- EC50 (DENV-1 replicon): 2.2 µM
- CC50 at 48 h [1]: > 10 µM
- EC50 (DENV-2 replicon; [2]): 3.3 µM
- EC50 (DENV-4 replicon): 6.5 µM
- EC50 (DENV-3 replicon; [3]): 0.2 µM

SMILES: C[C@@H](c1ccc(Cl)cc1)n1nnc2c1NC(=O)C[C@]21C(=O)N(Cc2ccc(Cl)c(F)c2)c2ccc(Cl)cc21 [Compound 28, (R)-5'-Chloro-1'-(4-chloro-3-fluorobenzyl)-3-((S)-1-(4-chlorophenyl)ethyl)-4,6-dihydrospiro[[1,2,3]triazolo[4,5-b]pyridine-7,3'-indoline]-2',5(3H)-dione]
- EC50 (DENV-1 replicon): 1.5 µM
- CC50 at 48 h [1]: > 10 µM
- EC50 (DENV-2 replicon; [2]): 4 µM
- EC50 (DENV-4 replicon): 5.1 µM
- EC50 (DENV-3 replicon; [3]): 0.29 µM

SMILES: COc1cccc(CN2C(=O)[C@]3(CC(=O)Nc4c3nnn4[C@@H](C)c3ccc(Cl)cc3)c3cc(Cl)ccc32)c1 [Compound 29, (R)-5'-Chloro-3-((S)-1-(4-chlorophenyl)ethyl)-1'-(3-methoxybenzyl)-4,6-dihydrospiro[[1,2,3]triazolo[4,5-b]pyridine-7,3'-indoline]-2',5(3H)-dione]
- EC50 (DENV-1 replicon): 2.6 µM
- CC50 at 48 h [1]: > 10 µM
- EC50 (DENV-2 replicon; [2]): 0.83 µM
- EC50 (DENV-4 replicon): 6.2 µM
- EC50 (DENV-3 replicon; [3]): 0.087 µM

SMILES: COc1cc(CN2C(=O)[C@]3(CC(=O)Nc4c3nnn4[C@@H](C)c3ccc(Cl)cc3)c3cc(Cl)ccc32)cc(OC)c1 [Compound 30, (R)-5'-Chloro-3-((S)-1-(4-chlorophenyl)ethyl)-1'-(3,5-dimethoxybenzyl)-4,6-dihydrospiro[[1,2,3]triazolo[4,5-b]pyridine-7,3'-indoline]-2',5(3H)-dione]
- EC50 (DENV-1 replicon): 3.4 µM
- CC50 at 48 h [1]: > 10 µM
- EC50 (DENV-2 replicon; [2]): 3.1 µM
- EC50 (DENV-4 replicon): 7.4 µM
- EC50 (DENV-3 replicon; [3]): 0.79 µM

SMILES: C[C@@H](c1ccc(Cl)cc1)n1nnc2c1NC(=O)C[C@]21C(=O)N(Cc2cc(C(C)(C)C)cc(C(C)(C)C)c2)c2ccc(Cl)cc21 [Compound 31, (R)-5'-Chloro-3-((S)-1-(4-chlorophenyl)ethyl)-1'-(3,5-di-tert-butylbenzyl)-4,6-dihydrospiro[[1,2,3]triazolo[4,5-b]pyridine-7,3ʹ-indoline]-2',5(3H)-dione]
- EC50 (DENV-1 replicon): 4.6 µM
- CC50 at 48 h [1]: > 10 µM
- EC50 (DENV-2 replicon; [2]): > 10 µM
- EC50 (DENV-4 replicon): 4.9 µM
- EC50 (DENV-3 replicon; [3]): 5.9 µM

SMILES: C[C@@H](c1ccc(Cl)cc1)n1nnc2c1NC(=O)C[C@]21C(=O)N(CCc2ccccc2)c2ccc(Cl)cc21 [Compound 32, (R)-5'-Chloro-3-((S)-1-(4-chlorophenyl)ethyl)-1'-phenethyl-4,6-dihydrospiro[[1,2,3]triazolo[4,5-b]pyridine-7,3'-indoline]-2',5(3H)-dione]
- EC50 (DENV-1 replicon): 1.1 µM
- CC50 at 48 h [1]: > 10 µM
- EC50 (DENV-2 replicon; [2]): 0.6 µM
- EC50 (DENV-4 replicon): > 5 µM
- EC50 (DENV-3 replicon; [3]): 0.19 µM

SMILES: C[C@@H](c1ccc(Cl)cc1)n1nnc2c1NC(=O)C[C@]21C(=O)N(Cc2ccccn2)c2ccc(Cl)cc21 [Compound 33, (R)-5'-chloro-3-((S)-1-(4-chlorophenyl)ethyl)-1'-(pyridin-2-ylmethyl)-4,6-dihydrospiro[[1,2,3]triazolo[4,5-b]pyridine-7,3'-indoline]-2',5(3H)-dione]
- EC50 (DENV-1 replicon): > 5 µM
- CC50 at 48 h [1]: > 10 µM
- EC50 (DENV-2 replicon; [2]): 0.02 µM
- EC50 (DENV-4 replicon): > 5 µM
- EC50 (DENV-3 replicon; [3]): 0.003 µM

SMILES: C[C@@H](c1ccc(Cl)cc1)n1nnc2c1NC(=O)C[C@]21C(=O)N(Cc2cccnc2)c2ccc(Cl)cc21 [Compound 34, (R)-5'-Chloro-3-((S)-1-(4-chlorophenyl)ethyl)-1'-(pyridin-3-ylmethyl)-4,6-dihydrospiro[[1,2,3]triazolo[4,5-b]pyridine-7,3'-indoline]-2',5(3H)-dione]
- EC50 (DENV-1 replicon): 3.2 µM
- CC50 at 48 h [1]: > 10 µM
- EC50 (DENV-2 replicon; [2]): 0.029 µM
- EC50 (DENV-4 replicon): > 5 µM
- EC50 (DENV-3 replicon; [3]): 0.021 µM
